Measurements as given in patent US9073855B2, “BCL-2 selective apoptosis-inducing agents for the treatment of cancer and immune diseases” (AbbVie Inc., priority 2008, dated 2015).

Assays:
GST-Bcl-2 = GST-Bcl-2 (Homo sapiens, UniProt P10415); assay: TR-FRET binding assay, GST-Bcl-2 with F-Bak peptide probe; conditions: for Ki: TR-FRET Binding Affinity
Description: (§1) Tb-anti-GST antibody was purchased from Invitrogen (Catalog No. PV4216).
(§2) Representative compounds were serially diluted in dimethyl sulfoxide (DMSO) starting at 50 μM (2× starting concentration; 10% DMSO) and 10 μL were transferred into a 384-well plate.
(§3) The samples were then mixed on a shaker for 1 minute and incubated for an additional 3 hours at room temperature. For each assay, the probe/antibody and protein/probe/antibody were included on each assay plate as negative and positive controls, respectively. Fluorescence was measured on the ENVISION plate reader (Perkin Elmer) using a 340/35 nm excitation filter and 520/525 (F-Bak peptide) and 495/510 nm (Tb-labeled […] antibody) emission filters.
(§4) The inhibition constant (Ki) is the dissociation constant of an enzyme-inhibitor complex or a protein/small molecule complex, wherein the small molecule is inhibiting binding of one protein to another protein or peptide. […] Inhibition constants were determined using Wang's equation (Wang Z-X., An Exact Mathematical Expression For Describing Competitive Binding Of Two Different Ligands To A Protein Molecule. FEBS Lett. 1995, 360:111-4).

GST-Bcl-XL = GST-Bcl-XL (Homo sapiens, UniProt Q07817); assay: TR-FRET binding assay, GST-Bcl-XL with F-Bak peptide probe; conditions: TR-FRET Binding Affinity
GST-Bcl-XL, sequence (Q07817 whole entry): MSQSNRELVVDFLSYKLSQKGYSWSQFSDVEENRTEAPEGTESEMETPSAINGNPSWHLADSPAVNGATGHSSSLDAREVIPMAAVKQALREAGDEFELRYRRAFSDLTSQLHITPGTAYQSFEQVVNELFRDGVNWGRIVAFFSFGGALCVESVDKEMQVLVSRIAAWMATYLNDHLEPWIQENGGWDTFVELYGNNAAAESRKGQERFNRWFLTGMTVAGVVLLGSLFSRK
Description: as §1, §2, §3, §4

[1] = TR-FRET, Bcl-XL Ki divided by Bcl-2 Ki
[2] = GST-Bcl-XL, F-Bak peptide probe

GST-Bcl-2, sequence (P10415 whole entry): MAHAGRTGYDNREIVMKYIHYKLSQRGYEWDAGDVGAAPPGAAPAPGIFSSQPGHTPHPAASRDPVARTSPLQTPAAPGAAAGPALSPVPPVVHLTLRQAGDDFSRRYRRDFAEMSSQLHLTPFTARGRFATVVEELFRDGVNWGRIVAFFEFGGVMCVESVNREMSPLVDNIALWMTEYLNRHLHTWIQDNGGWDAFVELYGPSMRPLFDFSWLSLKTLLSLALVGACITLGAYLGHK

Compound | Ki (GST-Bcl-2) [nM] | Ki (GST-Bcl-XL; [2]) [nM] | other results
CC1(C)CCC(CN2CCN(c3ccc(C(=O)NS(=O)(=O)c4ccc(OCC5CCOCC5)c(Cl)c4)c(Oc4cccc5[nH]ncc45)c3)CC2)=C(c2ccc(Cl)cc2)C1 [Example 498, 4-(4-{[2-(4-chlorophenyl)-4,4-dimethylcyclohex-1-en-1-yl]methyl}piperazin-1-yl)-N-{[3-chloro-4-(tetrahydro-2H-pyran-4-ylmethoxy)phenyl]sulfonyl}-2-(1H-indazol-4-yloxy)benzamide] | < 0.01 |  | Binding selectivity ratio (Bcl-XL Ki/Bcl-2 Ki) (GST-Bcl-2; [1]): >12491.0; Ki (GST-Bcl-XL): 125 nM
CC1(C)CCC(c2ccc(Cl)cc2)=C(CN2CCN(c3ccc(C(=O)NS(=O)(=O)c4ccc(NCCCN5CCOCC5)c([N+](=O)[O-])c4)c(Oc4ccccc4)c3)CC2)C1 [Example 19, 4-(4-{[2-(4-chlorophenyl)-5,5-dimethylcyclohex-1-en-1-yl]methyl}piperazin-1-yl)-N-({4-[(3-morpholin-4-ylpropyl)amino]-3-nitrophenyl}sulfonyl)-2-phenoxybenzamide] |  | 20 | Ki (GST-Bcl-2; GST-Bcl-2, F-Bak peptide probe): 0.847 nM
CC1(C)CCC(CN2CCN(c3ccc(C(=O)NS(=O)(=O)c4ccc(NC5CCN(C6CC6)CC5)c([N+](=O)[O-])c4)c(Oc4cccc5[nH]cnc45)c3)CC2)=C(c2ccc(Cl)cc2)C1 [Example 451, 2-(1H-benzimidazol-4-yloxy)-4-(4-{[2-(4-chlorophenyl)-4,4-dimethylcyclohex-1-en-1-yl]methyl}piperazin-1-yl)-N-({4-[(1-cyclopropylpiperidin-4-yl)amino]-3-nitrophenyl}sulfonyl)benzamide] | < 0.01 |  | Binding selectivity ratio (Bcl-XL Ki/Bcl-2 Ki) (GST-Bcl-2; [1]): 359.9; Ki (GST-Bcl-XL): 3.6 nM
O=C(NS(=O)(=O)c1ccc(NCCCN2CCOCC2)c([N+](=O)[O-])c1)c1ccc(N2CCN(Cc3ccccc3-c3ccc(Cl)cc3)CC2)cc1Oc1ccc2ccccc2c1 [Example 36, 4-{4-[(4′-chloro-1,1′-biphenyl-2-yl)methyl]piperazin-1-yl}-N-({4-[(3-morpholin-4-ylpropyl)amino]-3-nitrophenyl}sulfonyl)-2-(2-naphthyloxy)benzamide] |  | 8.99 | Ki (GST-Bcl-2; GST-Bcl-2, F-Bak peptide probe): 0.796 nM
O=C(NS(=O)(=O)c1ccc(NCC2CCOCC2)c([N+](=O)[O-])c1)c1ccc(N2CCN(CC3=C(c4ccc(Cl)cc4)CCC(F)(F)C3)CC2)cc1Oc1cccc2[nH]ncc12 [Example 524, 4-(4-{[2-(4-chlorophenyl)-5,5-difluorocyclohex-1-en-1-yl]methyl}piperazin-1-yl)-2-(1H-indazol-4-yloxy)-N-({3-nitro-4-[(tetrahydro-2H-pyran-4-ylmethyl)amino]phenyl}sulfonyl)benzamide] | < 0.01 |  | Binding selectivity ratio (Bcl-XL Ki/Bcl-2 Ki) (GST-Bcl-2; [1]): >2218.4; Ki (GST-Bcl-XL): 22.2 nM
O=C(NS(=O)(=O)c1ccc(NCC2CCOCC2)c([N+](=O)[O-])c1)c1ccc(N2CCN(Cc3cc(OCCCN4CCCCC4)ccc3-c3ccc(Cl)cc3)CC2)cc1Oc1ccccc1 [Example 114, 4-(4-{[4′-chloro-4-(3-piperidin-1-ylpropoxy)-1,1′-biphenyl-2-yl]methyl}piperazin-1-yl)-N-({3-nitro-4-[(tetrahydro-2H-pyran-4-ylmethyl)amino]phenyl}sulfonyl)-2-phenoxybenzamide] |  | 14.3 | Ki (GST-Bcl-2; GST-Bcl-2, F-Bak peptide probe): 0.096 nM
CN(C)CC(=O)N1CC[C@@H](Nc2ccc(S(=O)(=O)NC(=O)c3ccc(N4CCN(CC5=C(c6ccc(Cl)cc6)CC(C)(C)CC5)CC4)cc3Oc3cccc4[nH]cnc34)cc2[N+](=O)[O-])C1 [Example 430, 2-(1H-benzimidazol-4-yloxy)-4-(4-{[2-(4-chlorophenyl)-4,4-dimethylcyclohex-1-en-1-yl]methyl}piperazin-1-yl)-N-[(4-{[(3R)-1-(N,N-dimethylglycyl)pyrrolidin-3-yl]amino}-3-nitrophenyl)sulfonyl]benzamide] |  | 0.998 | Ki (GST-Bcl-2; GST-Bcl-2, F-Bak peptide probe): < 0.01 nM; Binding selectivity ratio (Bcl-XL Ki/Bcl-2 Ki) (GST-Bcl-2; ratio of TR-FRET Ki values, Bcl-XL over Bcl-2): 99.8
O=C(NS(=O)(=O)c1ccc(NCC2CCOCC2)c(S(=O)(=O)C(F)(F)F)c1)c1ccc(N2CCN(Cc3cc(OCCN4CCOCC4)ccc3-c3ccc(Cl)cc3)CC2)cc1Oc1ccccc1 [Example 117, 4-(4-{[4′-chloro-4-(2-morpholin-4-ylethoxy)-1,1′-biphenyl-2-yl]methyl}piperazin-1-yl)-2-phenoxy-N-({4-[(tetrahydro-2H-pyran-4-ylmethyl)amino]-3-[(trifluoromethyl)sulfonyl]phenyl}sulfonyl)benzamide] |  | > 660 | Ki (GST-Bcl-2; GST-Bcl-2, F-Bak peptide probe): 2.3 nM
CC1(C)CCC(CN2CCN(c3ccc(C(=O)NS(=O)(=O)c4cnc(OCC5(F)CCC(C#N)CC5)c(Cl)c4)c(Oc4cccc5[nH]ncc45)c3)CC2)=C(c2ccc(Cl)cc2)C1 (stereo not drawn) [Example 549, N-({5-chloro-6-[(cis-4-cyano-1-fluorocyclohexyl)methoxy]pyridin-3-yl}sulfonyl)-4-(4-{[2-(4-chlorophenyl)-4,4-dimethylcyclohex-1-en-1-yl]methyl}piperazin-1-yl)-2-(1H-indazol-4-yloxy)benzamide] | < 0.01 |  | 
CC1(C)CCC(CN2CCN(c3ccc(C(=O)NS(=O)(=O)c4cnc(NCC5CCC(C)(O)CC5)c([N+](=O)[O-])c4)c(Oc4cccc5[nH]ncc45)c3)CC2)=C(c2ccc(Cl)cc2)C1 (stereo not drawn) [Example 555, 4-(4-{[2-(4-chlorophenyl)-4,4-dimethylcyclohex-1-en-1-yl]methyl}piperazin-1-yl)-N-[(6-{[(cis-4-hydroxy-4-methylcyclohexyl)methyl]amino}-5-nitropyridin-3-yl)sulfonyl]-2-(H-indazol-4-yloxy)benzamide] | < 0.01 |  | 
CC1(C)CCC(CN2CCN(c3ccc(C(=O)NS(=O)(=O)c4ccc(NC[C@H]5CN(C6COC6)CCO5)c([N+](=O)[O-])c4)c(Oc4cccc5[nH]cnc45)c3)CC2)=C(c2ccc(Cl)cc2)C1 [Example 541, 2-(1H-benzimidazol-4-yloxy)-4-(4-{[2-(4-chlorophenyl)-4,4-dimethylcyclohex-1-en-1-yl]methyl}piperazin-1-yl)-N-{[3-nitro-4-({[(2S)-4-(oxetan-3-yl)morpholin-2-yl]methyl}amino)phenyl]sulfonyl}benzamide] | 0.167 |  | 
COCC1(C)CCC(c2ccc(Cl)cc2)=C(CN2CCN(c3ccc(C(=O)NS(=O)(=O)c4cnc(OCC5CCC(C)(O)CC5)c(Cl)c4)c(Oc4cccc5[nH]ncc45)c3)CC2)C1 (stereo not drawn) [Example 539, N-({5-chloro-6-[(trans-4-hydroxy-4-methylcyclohexyl)methoxy]pyridin-3-yl}sulfonyl)-4-(4-{[2-(4-chlorophenyl)-5-(methoxymethyl)-5-methylcyclohex-1-en-1-yl]methyl}piperazin-1-yl)-2-(1H-indazol-4-yloxy)benzamide] | < 0.01 |  | 
O=C(NS(=O)(=O)c1ccc(NCCCN2CCOCC2)c([N+](=O)[O-])c1)c1ccc(N2CCN(Cc3ccccc3-c3ccc(Cl)cc3)CC2)cc1Oc1ccc2[nH]ccc2c1 [Example 59, 4-{4-[(4′-chloro-1,1′-biphenyl-2-yl)methyl]piperazin-1-yl}-2-(1H-indol-5-yloxy)-N-({4-[(3-morpholin-4-ylpropyl)amino]-3-nitrophenyl}sulfonyl)benzamide] |  | 1260 | 
CC1(C)CCC(CN2CCN(c3ccc(C(=O)NS(=O)(=O)c4ccc(NC[C@H]5CN(C6COC6)CCO5)c([N+](=O)[O-])c4)c(Oc4cccc5[nH]ncc45)c3)CC2)=C(c2ccc(Cl)cc2)C1 [Example 540, 4-(4-{[2-(4-chlorophenyl)-4,4-dimethylcyclohex-1-en-1-yl]methyl}piperazin-1-yl)-2-(1H-indazol-4-yloxy)-N-{[3-nitro-4-({[(2S)-4-(oxetan-3-yl)morpholin-2-yl]methyl}amino)phenyl]sulfonyl}benzamide] | < 0.01 |  | 
CC1(C)CCC(CN2CCN(c3ccc(C(=O)NS(=O)(=O)c4cnc(OCC5CCC(C)(O)CC5)c(C#N)c4)c(Oc4cccc5[nH]ncc45)c3)CC2)=C(c2ccc(Cl)cc2)C1 (stereo not drawn) [Example 544, 4-(4-{[2-(4-chlorophenyl)-4,4-dimethylcyclohex-1-en-1-yl]methyl}piperazin-1-yl)-N-({5-cyano-6-[(trans-4-hydroxy-4-methylcyclohexyl)methoxy]pyridin-3-yl}sulfonyl)-2-(1H-indazol-4-yloxy)benzamide] | < 0.01 |  | 
CN1[C@@H]2CC[C@H]1CC(Nc1ccc(S(=O)(=O)NC(=O)c3ccc(N4CCN(CC5=C(c6ccc(Cl)cc6)CC(C)(C)CC5)CC4)cc3Oc3ccc4[nH]ccc4c3)cc1[N+](=O)[O-])C2 (stereo partly drawn) [Example 467, 4-(4-{[2-(4-chlorophenyl)-4,4-dimethylcyclohex-1-en-1-yl]methyl}piperazin-1-yl)-2-(1H-indol-5-yloxy)-N-[(4-{[(1R,5S)-8-methyl-8-azabicyclo[3.2.1]oct-3-yl]amino}-3-nitrophenyl)sulfonyl]benzamide] | 0.08 |  | 
COC1(C)CCC(c2ccc(Cl)cc2)=C(CN2CCN(c3ccc(C(=O)NS(=O)(=O)c4cnc(OCC5CCC(C)(O)CC5)c(Cl)c4)c(Oc4cccc5[nH]ncc45)c3)CC2)C1 (stereo not drawn) [Example 553, N-({5-chloro-6-[(trans-4-hydroxy-4-methylcyclohexyl)methoxy]pyridin-3-yl}sulfonyl)-4-(4-{[2-(4-chlorophenyl)-5-methoxy-5-methylcyclohex-1-en-1-yl]methyl}piperazin-1-yl)-2-(1H-indazol-4-yloxy)benzamide] | < 0.01 |  | 
